Experiment [1] concerns the target T1, Human farnesyl protein transferase (Homo sapiens, UniProt P49354+P49356).
T1 construct: grown as monolayer cell cultures were used as a source of human enzyme; endogenous in cells; host or cells: KHOS (Kirsten virus transformed human osteosarcoma) cells, grown as solid tumors in nude mice or as monolayer cultures; 30-50% ammonium sulfate fraction, then Q Fast Flow Sepharose
Put plainly: In vitro assay for inhibition of farnesyl protein transferase (scintillation proximity assay). Format: biochemical. To be noted: concentration producing 50% inhibition of enzyme activity; [3H]-farnesylpyrophosphate and biotinylated lamin B peptide substrates, 60 min at 37° C. Here is the method:
Human farnesyl protein transferase was prepared essentially as described (Y. Reiss et al., Methods: A Companion to Methods in Enzymology vol 1, 241-245, 1990). Kirsten virus transformed human osteosarcoma (KHOS) cells (American Type Culture Collection, Rockville, Md., USA) grown as solid tumors in nude mice or grown as monolayer cell cultures were used as a source of human enzyme. Briefly, cells or tumors were homogenized in buffer containing 50 mM Tris, 1 mM EDTA, 1 mM EGTA and 0.2 mM phenylmethylsulfonylfluoride (pH 7.5). The homogenates were centrifuged 28,000×g for 60 min and the supernatants collected. A 30-50% ammonium sulfate fraction was prepared, and the resulting precipitate was resuspended in a small (10 to 20 ml) volume of dialysis buffer containing 20 mM Tris 1 mM dithiothreitol and 20 μM ZnCl2. The ammonium sulfate fraction was dialyzed overnight against two changes of the same buffer. The dialyzed material was applied to a 10×1 cm Q Fast Flow Sepharose (Pharmacia LKB Biotechnology Inc., Piscataway, N.J., USA) which had been preequilibrated with 100 ml of dialysis buffer supplemented with 0.05 M NaCl. The column was washed with an additional 50 ml of dialysis buffer plus 0.05 M NaCl followed by a gradient from 0.05 M to 0.25 M NaCl prepared in dialysis buffer. The enzyme activity was eluted with a linear gradient of 0.25 to 1.0 M NaCl prepared in the dialysis buffer. Fractions containing 4 to 5 ml volumes of column eluate were collected and analyzed for farnesyl protein transferase activity. Fractions with enzyme activity were pooled and supplemented with 100 μM ZnCl2. Enzyme samples were stored frozen at −70° C.
The activity of farnesyl protein transferase was measured using the Farnesyl Transferase [^3H] Scintillation Proximity Assay (Amersham International plc., England) under the conditions specified by the manufacturer. To assay for inhibitors of the enzyme, 0.20 μCi of the [^3H]-famesylpyrophosphate substrate and the biotinylated lamin B peptide substrate (biotin-YRASNRSCAIM) were mixed with test compounds in a reaction buffer consisting of 50 mM HEPES, 30 mM MgCl2, 20 mM KCl, 5 mM dithiothreitol, 0.01% Triton X-100. Test compounds were delivered in a 10 μl volume of dimethylsulfoxide (DMSO) to achieve concentrations of 1 and 10 μg/ml in a final volume of 100 μl. The reaction mixture was warmed to 37° C. The enzyme reaction was started by adding 20 μl of diluted human farnesyl protein transferase. Sufficient enzyme preparation was added to produce between 4000 to 15000 cpm of reaction product during the 60 min of reaction incubation at 37° C. Reactions were terminated by the addition of STOP/scintillation proximity bead reagent (Amersham). The reaction product [^3H]-farnesyl-(Cys)-biotin lamin B peptide was captured on the streptavidin linked scintillation proximity bead. The amount of [^3H]-farnesyl-(Cys)-biotin lamin B peptide synthesized in the presence or absence of test compounds was quantified as cpm by counting on a Wallac Model 1480 Microbeta Liquid Scintillation Counter. The cpm of product was considered to be farnesyl protein transferase activity. The protein farnesyl transferase activity observed in the presence of test compound was normalized to farnesyl transferase activity in the presence of 10% DMSO and expressed as per cent inhibition. […] The effects of test compounds in these studies were calculated as IC50 (concentration of test compound producing 50% inhibition of enzyme activity) using the LGICV50 computer program written by the Science Information Division of R. W. Johnson Pharmaceutical Research Institute (Spring House, Pa., USA) on a VAX computer.

In experiment [2] the test system is NIH 3T3 cells transformed by the T24 activated human H-ras gene. Put plainly: Ras-transformed cell phenotype reversion assay. Format: cell-based, mouse. To be noted: NIH3T3; cell counts after 72 hours proliferation, corrected for initial input of 200,000 cells. The text has this: Insertion of activated oncogenes such as the mutant ras gene into mouse NIH 3T3 cells converts the cells to a transformed phenotype. The cells become tumorigenic, display anchorage independent growth in semi-solid medium and lose contact inhibition. Loss of contact inhibition produces cell cultures which no longer form uniform monolayers. Rather, the cells pile up into multicellular nodules and grow to very high saturation densities in plastic tissue culture dishes. Agents such as protein farnesyl transferase inhibitors which revert the ras transformed phenotype restore the uniform monolayer growth pattern to cells in culture. This reversion is easily monitored by counting the number of cells in tissue culture plates. Transformed cells will achieve higher cell numbers than cells which have reverted to an untransformed phenotype. Compounds which revert the transformed phenotype should produce antitumor effects in tumors bearing ras gene mutations.
Compounds are screened in tissue culture in NIH 3T3 cells transformed by the T24 activated human H-ras gene. Cells are seeded at an initial density of 200,000 cells per well (9.6 cm^2 surface area) in six-well cluster tissue culture plates. Test compounds are immediately added to 3.0 ml cell growth medium in a 3.0 μl volume of DMSO, with a final concentration of DMSO in the cell growth medium of 0.1%. The test compounds are run at concentrations of 5, 10, 50, 100, and 500 nM along with a DMSO treated vehicle control. (In case a high activity is observed at 5 nM, the test compound is tested at even lower concentrations.) The cells are allowed to proliferate for 72 hours. Then the cells are detached in 1.0 ml trypsin-EDTA cell dissociation medium and counted on a Coulter particle counter.
Cell numbers expressed as cells per well are measured using a Coulter Particle Counter.
All cell counts were corrected for the initial cell input density by subtracting 200,000.
Control cell counts=[cell counts from cells incubated with DMSO vehicle −200,000].
Test compound cell counts=[cell counts from cells incubated with test compound −200,000]. [formula]
IC50 (i.e. the test compound concentration required to inhibit enzyme activity by 50%) is calculated if sufficient data are available, summarized in table 11.

Experiment [3] relates to T24 activated human H-ras gene transformed NIH 3T3 fibroblast cells (T24 cells). Put plainly: Farnesyl protein transferase inhibitor secondary tumor model. Format: in vivo. To be noted: nude mice with subcutaneous T24 cell tumors, 15 days of treatment. An excerpt:
The enzyme farnesyl protein transferase catalyzes the covalent attachment of a farnesyl moiety derived from farnesyl pyrophosphate to the oncogene product p21^ras. This directs p21^ras to attach to plasma membranes. Once attached to plasma membranes, mutant or oncogenic forms of p21^ras will provide a signal for the transformation and uncontrolled growth of malignant tumor cells. Therefore, inhibitors of protein farnesyl transferase will prevent the membrane attachment of p21^ras and inhibit growth of ras-transformed tumors.
Nude mice are inoculated with 1×10^6 of T24 activated human H-ras gene transformed NIH 3T3 fibroblast cells (T24 cells), subcutaneously in the inguinal region. After three days to allow tumors to become established, treatment with test compounds is begun via the oral route. The test compounds are dissolved in a 20% β-cyclodextrin in 0.1 N HCl solution and administered orally as 0.1 ml of compound solution per 10 g mouse body weight. Routinely used doses are 6.25, 12.5 and 25 mg/kg. Body weights and tumor sizes are monitored during the ensuing 15 days of treatment. At the end of treatment, animals are sacrificed and tumors are weighed.
The “mean vehicle treated tumor weight” is defined as the mean tumor weight from 10 to 15 mice […].
The “mean tumor weight” is defined as the mean tumor weight from 10 to 15 mice […]. [formula]

Counter-ions that a name gives are not always drawn.

For orientation: IC50 means the midpoint of a concentration-inhibition curve. Lower therefore signals higher potency. In the case of `CCOc1cccc(-c2cc(=O)n(C)c3ccc(C(O)(c4ccc(Cl)cc4)c4cncn4C)cc23)c1` (stereo not drawn) [Compound 34, 6-[(4-chlorophenyl)hydroxy(1-methyl-1H-imidazol-5-yl)methyl]-4-(3-ethoxyphenyl)-1-methyl-2(1H)-quinolinone], the IC50 in experiment [1] was 1.6 nM; in experiment [2] it was 3 nM. Further, in experiment [3], the “% reduction final tumor weight at a dose of 25 mg/kg bid, po” value is on record as 56%.

`CCOc1cccc(-c2cc(=O)n(C)c3ccc(C(c4ccc(Cl)cc4)c4cncn4C)cc23)c1` (stereo not drawn) [Compound 35, 6-[(4-chlorophenyl)(1-methyl-1H-imidazol-5-yl)methyl]-4-(3-ethoxyphenyl)-1-methyl-2(1H)-quinolinone monohydrochloride.monohydrate]: the results for the IC50 in experiment [1] and in experiment [2] were 0.39 nM and 3.4 nM, respectively. The “% reduction final tumor weight at a dose of 25 mg/kg bid, po” value in experiment [3] came out at 39%.

These data come from patent publication US6420387B1, “Farnesyl protein transferase inhibiting (imidazol-5-yl) methyl-2-quinolinone derivatives” (Janssen Pharmaceutica N.V., priority 1995, dated 2002).
